The record followed here is patent publication US20240350667A1, “Method of Enhancing Gene Therapy by Targeting cGAS-STING Pathway” (Spark Therapeutics, Inc., priority 2021, published 2024).

Assay [1] deals with DNA-LNP-induced plasma cytokine/chemokine levels. Put plainly: In vivo RO3150 and GSK690693 inhibition of DNA-LNP-induced cytokine release. On the set-up: species or system BALB/c mice. As to conditions: pre-treatment before DNA-LNP: dexamethasone 200 μg IP, GSK690693 312.5 μg IP (about one hour prior), RO3150 60 μg IV (right before); plasma at 4 hours; FIGS. 3A-3H. The method, then:
BALB/c mice were pre-treated with dexamethasone, GSK690693, or RO3150 before DNA-LNP administration, and plasma cytokine levels were measured at 4 hours post DNA-LNP treatment. The DNA-LNP was made up of (1) DNA plasmid (nanoplasmid expression cassette encoding hFIX); and (2) GenVoy-ILM™ LNP. GenVoy-ILM™ LNP contains ionizable lipid at 50%; DSPC at 10%; cholesterol 37.5%; and stabilizer (PEG-Lipid) at 2.5% (see Roces et al., Pharmaceutics, 2020 12, 1095). Pretreatment was carried out using 200 μg dexamethasone administered intraperitoneally about one hour prior to DNA-LNP administration; using 312.5 μg GSK69063 administered intraperitoneally about one hour prior to DNA-LNP administration; or using 60 μg […] administered intravenously right before DNA-LNP administration.

For assay [2], the system named is interferon regulatory factor (IRF) pathway in THP1-Dual cells. Put plainly: In vitro H-151 inhibition of DNA-LNP-induced IRF activation (Lucia luciferase in THP1-Dual cell supernatant). The class given is cell-based. To be noted: 25 ng DNA-LNP/well, 24 hours, FIG. 1. The method, then:
THP1-Dual™ cells (InvivoGen) were seeded in 96-well plates at a density of 45,000 cells/well. After overnight incubation, the cells were treated with 25 ng DNA-LNP/well in the presence of 0, 0.2 or 2.1 ng of small molecule STING inhibitor H-151 (InvivoGen), where the H-151 was provided either a) co-encapsulated with the DNA in the LNPs, or b) provided in a soluble form. After 24 hours incubation, activation of the interferon regulatory factor (IRF) pathway (“fold IRF activity”) was determined by measuring luminescence signal (Lucia luciferase) in the cell culture supernatant. The DNA-LNP was made up of (1) DNA plasmid (nanoplasmid expression cassette encoding human coagulation Factor IX (hFIX)) and (2) Lipid 5 (further described in Sabnis et al. and I.A. infra.), 50%; C14-PEG2000, 1.5%; cholesterol, 38.5%; and DSPC, 10%.

For assay [3], the system named is DNA-LNP-induced plasma cytokines. The assay is described as follows: In vivo LNP-encapsulated H-151 inhibition of DNA-LNP-induced cytokine release. On the set-up: species or system BALB/c mice. To be noted: H-151 encapsulated in 10 μg DNA-LNP, about 1-2 μg/mouse, 4 hours post injection. The protocol:
BALB/c mice were injected with 10 μg DNA-LNP or 10 μg DNA-LNP encapsulating H-151. H-151 was provided at a dose of about 1-2 μg/mouse (about 0.04-0.08 mg/kg mouse) Cytokine levels in plasma were measured at 4 hours post injection. FIGS. 2A, 2B, 2C, and 2D illustrate the ability of H-151 encapsulated with the DNA-LNP to inhibit DNA-induced IFN-β (FIG. 2A), IFN-α (FIG. 2B), IFN-γ (FIG. 2C) and IL-6 (FIG. 2D). The DNA-LNP was as described in Example 1, above.

Consider `CCn1c(-c2nonc2N)nc2c(C#CC(C)(C)O)ncc(OC[C@H]3CCCNC3)c21` [GSK690693], for which the “cytokine/chemokine levels induced by DNA-LNP” value in assay [1] is “reduced most cytokine/chemokine levels except IL-6 and KC/GRO”.

With `CCc1ccc(NC(=O)Nc2c[nH]c3ccccc23)cc1` [H-151], in assay [2] (H-151 co-encapsulated with the DNA in the LNP, 0.2 or 2.1 ng/well), the “effect on LNP-DNA-induced IRF activation (fold IRF activity), compared with soluble H-151” value is “more pronounced”. Moreover, in assay [2] (soluble H-151, 0.2 or 2.1 ng/well), the “effect on LNP-DNA-induced IRF activation (fold IRF activity)” value is on record as “had an inhibitory effect”. Moreover, the “DNA-induced IFN-β in plasma” value in assay [3] (FIG. 2A) is “inhibit”. In addition, in assay [3] (FIG. 2B), the “DNA-induced IFN-α in plasma” value is “inhibit”. Besides, in assay [3] (FIG. 2C), the “DNA-induced IFN-γ in plasma” value was “inhibit”. For the same compound, the “DNA-induced IL-6 in plasma” value in assay [3] (FIG. 2D) is “inhibit”.
